According to publication PMC6652260 (Endocrine Connections, 2019):

Assays:
human placental HSD11B2 = target: T1, human placental HSD11B2 (Homo sapiens, UniProt P80365); experiment: Human placental microsomal HSD11B2 activity assay; assay type: biochemical
T1 sequence (P80365 1-405): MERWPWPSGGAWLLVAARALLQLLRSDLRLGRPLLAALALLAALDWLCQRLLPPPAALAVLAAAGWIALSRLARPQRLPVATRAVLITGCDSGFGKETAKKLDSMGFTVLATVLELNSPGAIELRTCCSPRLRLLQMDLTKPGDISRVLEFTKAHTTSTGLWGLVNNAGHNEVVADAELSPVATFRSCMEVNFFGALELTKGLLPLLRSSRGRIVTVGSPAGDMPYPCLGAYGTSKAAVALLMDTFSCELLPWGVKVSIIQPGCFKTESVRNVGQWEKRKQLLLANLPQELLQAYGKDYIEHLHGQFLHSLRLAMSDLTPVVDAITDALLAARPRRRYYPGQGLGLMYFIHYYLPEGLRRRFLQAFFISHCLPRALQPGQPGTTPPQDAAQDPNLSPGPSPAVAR

[1] = test system: human trophoblast cell lines BeWo and HTR-8; conditions: DES at pM, BeWo and HTR-8 cells; cited from earlier work
[2] = test system: cultured trophoblast cells; conditions: cited from earlier work

Compound | IC50 (human placental HSD11B2) | Mode of action versus cofactor NAD+ (Lineweaver–Burk), human HSD11B2 (human placental HSD11B2; cofactor NAD+ varied, human placental microsomes) | Mode of action versus steroid substrate (Lineweaver–Burk), human HSD11B2 (human placental HSD11B2; cortisol as the substrate, human placental microsomes) | inhibition at 100 µM (human placental HSD11B2; read-out: Inhibition of human placental HSD11B2 activity) | Effect on human β-chorionic gonadotropin (β-hCG) secretion [1] | Effect on secretion of human chorionic gonadotropin [2]
CC/C(=C(/CC)c1ccc(O)cc1)c1ccc(O)cc1 [DES, Diethylstilbestrol] | 12.6 µM | uncompetitive inhibitor | competitive inhibitor | > 50% | can inhibit | –
CC1(C)[C@@H](OC(=O)CCC(=O)O)CC[C@]2(C)[C@H]3C(=O)C=C4[C@@H]5C[C@@](C)(C(=O)O)CC[C@]5(C)CC[C@@]4(C)[C@]3(C)CC[C@@H]12 [carbenoxolone] | – | – | – | – | – | stimulated secretion
